In patent publication US20100298141A1, “SUBSTITUTED PYRIDINE N-OXIDE HERBICIDES” (E. I. DU PONT DE NEMOURS AND COMPANY, priority 2007, published 2010):

Legend:
goosegrass = assay: Test F preemergence test; assay type: in vivo, Eleusine indica; details: scale 0 to 100
How it was run: (§1)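 Test chemicals were formulated in a non-phytotoxic solvent mixture with surfactant and applied preemergence to planted seeds or postemergence to sugarcane plants. Plants were kept in a greenhouse for 14 to 21 days, then visually evaluated against controls.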

johnsongrass = assay: Test F preemergence test; assay type: in vivo, Sorghum halepense; details: scale 0 to 100
How it was run: as §1

itchgrass = assay: Test F preemergence test; assay type: in vivo, Rottboellia cochinchinensis; details: scale 0 to 100
How it was run: as §1

dallisgrass = assay: Test F preemergence test; assay type: in vivo, Paspalum dilatatum; details: scale 0 to 100
How it was run: as §1

green foxtail = assay: Test C pre-/postemergence test; assay type: in vivo, Setaria viridis; details: for Plant response rating (0 to 100), Foxtail, Green: 250 g ai/ha
How it was run: (§2)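 Compounds in a non-phytotoxic solvent with surfactant applied preemergence to seeded pots and, at the same time, postemergence to plants 2–18 cm tall (1- to 4-leaf stage). Paddy tests: pots flooded to 3 cm, compound applied into the water, depth held throughout.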

common groundsel = assay: Test F preemergence test; assay type: in vivo, Senecio vulgaris; details: scale 0 to 100
How it was run: as §1

Italian ryegrass = assay: Test C pre-/postemergence test; assay type: in vivo, Lolium multiflorum
How it was run: as §2

purple nutsedge = assay: Test F preemergence test; assay type: in vivo, Cyperus rotundus; details: scale 0 to 100
How it was run: as §1

velvetleaf = assay: Test A pre-/postemergence greenhouse test; assay type: in vivo, Abutilon theophrasti; details: for Velvetleaf plant response rating: 0 to 100 scale; for Plant response rating, Velvetleaf: 0 to 100 scale where 0 is no effect and 100 is complete control
How it was run: (§3)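 Planting was into mixed loam soil and sand; preemergence treatment followed as a directed soil spray. Concurrently, emerged plants (one- to two-leaf, 2–10 cm) received postemergence applications of identically formulated compound (non-phytotoxic solvent, surfactant). After approximately ten days under greenhouse conditions, injury was judged by eye against untreated plants.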

kochia = assay: Test F preemergence test; assay type: in vivo, Kochia scoparia; details: scale 0 to 100
How it was run: as §1

barnyardgrass = assay: Test A pre-/postemergence greenhouse test; assay type: in vivo, Echinochloa crus-galli; details: for Barnyardgrass plant response rating: 0 to 100 scale; for Plant response rating, Barnyardgrass: 0 to 100 scale where 0 is no effect and 100 is complete control
How it was run: as §3

broadleaf signalgrass = assay: Test F preemergence test; assay type: in vivo, Brachiaria platyphylla; details: scale 0 to 100
How it was run: as §1

Virginia dayflower = assay: Test F preemergence test; assay type: in vivo, Commelina virginica; details: scale 0 to 100
How it was run: as §1

[1] = 62 g ai/ha, Preemergence, scale 0 to 100
[2] = Preemergence, 31 g ai/ha, scale 0 to 100 (0 no effect, 100 complete control)
[3] = Postemergence, 125 g ai/ha, 0 is no effect, 100 is complete control
[4] = Postemergence, 500 g ai/ha, 0 is no effect, 100 is complete control
[5] = Preemergence, 125 g ai/ha, 0 no effect, 100 complete control
[6] = 31 g ai/ha, Preemergence, scale 0 to 100
[7] = 62 g ai/ha, preemergence, scale 0 (no effect) to 100 (complete control)
[8] = preemergence, 125 g ai/ha, scale 0 (no effect) to 100 (complete control)

**Q.** For CC(c1c(C(F)(F)F)nn(C)c1OCC(F)(F)F)S(=O)(=O)c1cccc[n+]1[O-] (racemic) [Compound 33], which “Plant response rating, Goosegrass” value (goosegrass; 16 g ai/ha, preemergence) is on record?
**A.** 60

**Q.** And the “Goosegrass plant response rating” value (goosegrass; 62 g ai/ha, Preemergence)?
**A.** 98

**Q.** And the “Goosegrass plant response rating” value (goosegrass; 125 g ai/ha, preemergence)?
**A.** 100

**Q.** And the “Plant response rating, Goosegrass” value (goosegrass; Preemergence, 31 g ai/ha)?
**A.** 95

**Q.** And the “Plant response rating, Johnsongrass” value (johnsongrass; 16 g ai/ha, preemergence)?
**A.** 30

**Q.** And the “Johnsongrass plant response rating” value (johnsongrass; 62 g ai/ha, Preemergence)?
**A.** 100

**Q.** And the “Johnsongrass plant response rating” value (johnsongrass; 125 g ai/ha, preemergence)?
**A.** 100

**Q.** What about the “Plant response rating, Johnsongrass” value (johnsongrass; Preemergence, 31 g ai/ha) of the same molecule?
**A.** 60

**Q.** What about the “Plant response rating, Itchgrass” value (itchgrass; 16 g ai/ha, preemergence) of the same molecule?
**A.** 25

**Q.** What about the “Itchgrass plant response rating” value (itchgrass; 62 g ai/ha, Preemergence) of the same molecule?
**A.** 80

**Q.** What about the “Itchgrass plant response rating” value (itchgrass; 125 g ai/ha, preemergence) of the same molecule?
**A.** 100

**Q.** What about the “Plant response rating, Itchgrass” value (itchgrass; Preemergence, 31 g ai/ha) of the same molecule?
**A.** 40

**Q.** What about the “Plant response rating, Dallisgrass” value (dallisgrass; 16 g ai/ha, preemergence) of the same molecule?
**A.** 30

**Q.** And the “Dallisgrass plant response rating” value (dallisgrass; 62 g ai/ha, Preemergence)?
**A.** 80

**Q.** What about the “Dallisgrass plant response rating” value (dallisgrass; 125 g ai/ha, preemergence) of the same molecule?
**A.** 100

**Q.** What about the “Plant response rating, Dallisgrass” value (dallisgrass; Preemergence, 31 g ai/ha) of the same molecule?
**A.** 65

**Q.** And the “Foxtail, Green plant response rating” value (green foxtail; [1])?
**A.** 75

**Q.** What about the “Plant response rating, Foxtail, Green” value (green foxtail; [2]) of the same molecule?
**A.** 75

**Q.** And the “Plant response rating (0 to 100), Foxtail, Green” value (green foxtail; Preemergence)?
**A.** 100

**Q.** And the “Groundsel plant response rating” value (common groundsel; 125 g ai/ha, preemergence)?
**A.** 100

**Q.** And the “Ryegrass, Italian plant response rating” value (Italian ryegrass; [1])?
**A.** 80

**Q.** What about the “Plant response rating, Ryegrass, Italian” value (Italian ryegrass; [2]) of the same molecule?
**A.** 70

**Q.** And the “Plant response rating, Purple Nutsedge” value (purple nutsedge; 16 g ai/ha, preemergence)?
**A.** 0

**Q.** And the “Purple Nutsedge plant response rating” value (purple nutsedge; 62 g ai/ha, Preemergence)?
**A.** 85

**Q.** And the “Purple Nutsedge plant response rating” value (purple nutsedge; 125 g ai/ha, preemergence)?
**A.** 85

**Q.** And the “Plant response rating, Purple Nutsedge” value (purple nutsedge; Preemergence, 31 g ai/ha)?
**A.** 35

**Q.** What about the “Velvetleaf plant response rating” value (velvetleaf; [3]) of the same molecule?
**A.** 40

**Q.** And the “Velvetleaf plant response rating” value (velvetleaf; [4])?
**A.** 60

**Q.** What about the “Velvetleaf plant response rating” value (velvetleaf; [5]) of the same molecule?
**A.** 70

**Q.** What about the “Plant response rating, Velvetleaf” value (velvetleaf; Preemergence, 500 g ai/ha) of the same molecule?
**A.** 100

**Q.** What about the “Plant response rating, Kochia” value (kochia; 16 g ai/ha, preemergence) of the same molecule?
**A.** 0

**Q.** What about the “Kochia plant response rating” value (kochia; 62 g ai/ha, Preemergence) of the same molecule?
**A.** 70

**Q.** And the “Kochia plant response rating” value (kochia; 125 g ai/ha, preemergence)?
**A.** 100

**Q.** What about the “Plant response rating, Kochia” value (kochia; Preemergence, 31 g ai/ha) of the same molecule?
**A.** 50

**Q.** What about the “Barnyardgrass plant response rating” value (barnyardgrass; [3]) of the same molecule?
**A.** 70

**Q.** And the “Barnyardgrass plant response rating” value (barnyardgrass; [4])?
**A.** 100

**Q.** What about the “Barnyardgrass plant response rating” value (barnyardgrass; [5]) of the same molecule?
**A.** 100

**Q.** And the “Plant response rating, Barnyardgrass” value (barnyardgrass; Preemergence, 500 g ai/ha)?
**A.** 100

**Q.** What about the “Plant response rating, Signalgrass” value (broadleaf signalgrass; 16 g ai/ha, preemergence) of the same molecule?
**A.** 15

**Q.** What about the “Signalgrass plant response rating” value (broadleaf signalgrass; 125 g ai/ha, preemergence) of the same molecule?
**A.** 80

**Q.** And the “Plant response rating, Signalgrass” value (broadleaf signalgrass; Preemergence, 62 g ai/ha)?
**A.** 75

**Q.** What about the “Plant response rating, Signalgrass” value (broadleaf signalgrass; Preemergence, 31 g ai/ha) of the same molecule?
**A.** 35

**Q.** And the “Plant response rating, Dayflower” value (Virginia dayflower; 16 g ai/ha, preemergence)?
**A.** 60

**Q.** And the “Dayflower plant response rating” value (Virginia dayflower; 62 g ai/ha, Preemergence)?
**A.** 98

**Q.** What about the “Dayflower plant response rating” value (Virginia dayflower; 125 g ai/ha, preemergence) of the same molecule?
**A.** 100

**Q.** What about the “Plant response rating, Dayflower” value (Virginia dayflower; Preemergence, 31 g ai/ha) of the same molecule?
**A.** 90

**Q.** What does the source list for Cn1nc(C(F)(F)F)c(CS(=O)(=O)c2cccc[n+]2[O-])c1OC(F)F [Compound 4]?
**A.** Plant response rating, Goosegrass (goosegrass; 8 g ai/ha, preemergence): 0; Goosegrass plant response rating (goosegrass; 62 g ai/ha, Preemergence): 98; Plant response rating, Goosegrass (goosegrass; Preemergence, 16 g ai/ha): 80; Plant response rating, Goosegrass (goosegrass; Preemergence, 31 g ai/ha): 98; Plant response rating, Johnsongrass (johnsongrass; 8 g ai/ha, preemergence): 5; Johnsongrass plant response rating (johnsongrass; 62 g ai/ha, Preemergence): 95; Plant response rating, Johnsongrass (johnsongrass; Preemergence, 16 g ai/ha): 75; Plant response rating, Johnsongrass (johnsongrass; Preemergence, 31 g ai/ha): 90; Plant response rating, Itchgrass (itchgrass; 8 g ai/ha, preemergence): 0; Itchgrass plant response rating (itchgrass; 62 g ai/ha, Preemergence): 100; Plant response rating, Itchgrass (itchgrass; Preemergence, 16 g ai/ha): 0; Plant response rating, Itchgrass (itchgrass; Preemergence, 31 g ai/ha): 35; Plant response rating, Dallisgrass (dallisgrass; 8 g ai/ha, preemergence): 0; Dallisgrass plant response rating (dallisgrass; 62 g ai/ha, Preemergence): 80; Plant response rating, Dallisgrass (dallisgrass; Preemergence, 16 g ai/ha): 0; Plant response rating, Dallisgrass (dallisgrass; Preemergence, 31 g ai/ha): 35; Foxtail, Green plant response rating (green foxtail; [6]): 100; Foxtail, Green plant response rating (green foxtail; [7]): 100; Plant response rating (0 to 100), Foxtail, Green (green foxtail; Preemergence): 100; Foxtail, Green plant response rating (green foxtail; [8]): 100; Plant response rating, Groundsel (common groundsel; 8 g ai/ha, preemergence): 10; Groundsel plant response rating (common groundsel; 62 g ai/ha, Preemergence): 100; Plant response rating, Groundsel (common groundsel; Preemergence, 16 g ai/ha): 25; Plant response rating, Groundsel (common groundsel; Preemergence, 31 g ai/ha): 100; Ryegrass, Italian plant response rating (Italian ryegrass; [6]): 0; Ryegrass, Italian plant response rating (Italian ryegrass; [7]): 60; Plant response rating (0 to 100), Ryegrass, Italian (Italian ryegrass; Preemergence, 250 g ai/ha): 100; Ryegrass, Italian plant response rating (Italian ryegrass; [8]): 100; Plant response rating, Purple Nutsedge (purple nutsedge; 8 g ai/ha, preemergence): 0; Purple Nutsedge plant response rating (purple nutsedge; 62 g ai/ha, Preemergence): 80; Plant response rating, Purple Nutsedge (purple nutsedge; Preemergence, 16 g ai/ha): 65; Plant response rating, Purple Nutsedge (purple nutsedge; Preemergence, 31 g ai/ha): 65; Velvetleaf plant response rating (velvetleaf; [3]): 50; Velvetleaf plant response rating (velvetleaf; [4]): 80; Velvetleaf plant response rating (velvetleaf; [5]): 50; Plant response rating, Velvetleaf (velvetleaf; Preemergence, 500 g ai/ha): 90; Plant response rating, Kochia (kochia; 8 g ai/ha, preemergence): 0; Kochia plant response rating (kochia; 62 g ai/ha, Preemergence): 75; Plant response rating, Kochia (kochia; Preemergence, 16 g ai/ha): 0; Plant response rating, Kochia (kochia; Preemergence, 31 g ai/ha): 75; Barnyardgrass plant response rating (barnyardgrass; [3]): 70; Barnyardgrass plant response rating (barnyardgrass; [4]): 80; Barnyardgrass plant response rating (barnyardgrass; [5]): 70; Plant response rating, Barnyardgrass (barnyardgrass; Preemergence, 500 g ai/ha): 100; Plant response rating, Signalgrass (broadleaf signalgrass; 8 g ai/ha, preemergence): 0; Plant response rating, Signalgrass (broadleaf signalgrass; 16 g ai/ha, preemergence): 15; Signalgrass plant response rating (broadleaf signalgrass; 62 g ai/ha, Preemergence): 80; Plant response rating, Signalgrass (broadleaf signalgrass; Preemergence, 31 g ai/ha): 35; Plant response rating, Dayflower (Virginia dayflower; 8 g ai/ha, preemergence): 0; Dayflower plant response rating (Virginia dayflower; 62 g ai/ha, Preemergence): 90; Plant response rating, Dayflower (Virginia dayflower; Preemergence, 16 g ai/ha): 0; Plant response rating, Dayflower (Virginia dayflower; Preemergence, 31 g ai/ha): 90
